Assay results: patent US20260124184A1, “ONCE DAILY ALDOSTERONE SYNTHASE INHIBITOR (R)-(+)-5-(P-CYANOPHENYL)-5,6,7,8-TETRAHYDROIMIDAZO[L,5-A]PYRIDINE” (priority 2022, published 2026)
Entries after “also recorded” stand apart in the source; their conditions may differ. Like-named read-outs stand apart in the source and are kept apart here.

Assays:
[1] = test system: patients with primary aldosteronism
Protocol: (§1) A double-blind, randomized, Phase 2 trial was conducted between November 2019 and June 2022 at 11 centres in Italy, Switzerland and the Netherlands (NCT04007406). […] Patients requiring fixed-dose antihypertensive therapy continued treatment throughout the study; steroid therapies, β-adrenergic and renin-angiotensin-aldosterone system blockers were not permitted. At 14-day intervals, office blood pressures were recorded and blood samples were taken for measurement of steroid and peptide hormones and electrolytes at a central laboratory.
Plasma aldosterone and plasma renin concentration were measured centrally under GCP regulations using the Liaison® chemiluminescent immunoassay kit supplied by DiaSorin S.p.A. Italy. The system used specific monoclonal antibodies to prevent cross reactions with other major potential reactants in the serum samples. The monoclonal antibodies directed against specific epitopes of the renin molecule allowed accurate and sensitive quantification. The assays were performed according to the instructions provided by the manufacturer. […] The analytical sensitivity was <0.97 ng/ml. […] The analytical sensitivity was <0.53 IU/mL.
For all efficacy endpoints, changes from baseline were calculated from linear models and accompanied by 95% confidence intervals and p values. Log-transformed values were used for changes in ARR. The full analysis set (FAS) and safety set were defined as all randomized patients who received at least one dose of study drug.

[2] = test system: patients with primary aldosteronism; remark: listed apart in the source
Protocol: as §1

[3] = 4 mg once daily, n=10, Day 1 (baseline)
[4] = 4 mg once daily, n=10, Day 70 (after placebo withdrawal)
[5] = 8 mg once daily, n=12, Day 1 (baseline)
[6] = 8 mg once daily, n=12, Day 70 (after placebo withdrawal)
[7] = 12 mg once daily, n=13, Day 1 (baseline)
[8] = 12 mg once daily, n=13, Day 70 (so in the source)
[9] = 8 mg once daily, n=11, Day 1 (baseline)

Q: “(R)-(+)-5-(p-cyanophenyl)-5,6,7,8-tetrahydroimidazolium[1,5-a]pyridine dihydrogen phosphate [dexfadrostat phosphate]” was tested. Which “change in ARR from baseline to Day 56, mean” value (shortened to “change in ARR … mean”) ([1]; 4 mg once daily, n=10) did it give?
A: Its value is −20.87 (ng/dL)/(mU/L).

Q: And the “change in ARR from baseline to Day 56, median” value (“change in ARR … median” below) ([1]; 4 mg once daily, n=10)?
A: The value was −14.98 (ng/dL)/(mU/L).

Q: What about the “ARR, mean” value [1, 3] of the same substance?
A: Its value is 24.56 (ng/dL)/(mU/L).

Q: And the “ARR, median” value [1, 3]?
A: The value was 21.37 (ng/dL)/(mU/L).

Q: What about the “ARR, mean” value ([1]; 4 mg once daily, n=10, Day 14) of the same substance?
A: The value was 4.57 (ng/dL)/(mU/L).

Q: What about the “ARR, median” value ([1]; 4 mg once daily, n=10, Day 14) of the same substance?
A: Its value is 3.76 (ng/dL)/(mU/L).

Q: What about the “ARR, mean” value ([1]; 4 mg once daily, n=10, Day 28) of the same substance?
A: Its value is 2.57 (ng/dL)/(mU/L).

Q: What about the “ARR, median” value ([1]; 4 mg once daily, n=10, Day 28) of the same substance?
A: The value was 1.76 (ng/dL)/(mU/L).

Q: What about the “ARR, mean” value ([1]; 4 mg once daily, n=10, Day 42) of the same substance?
A: The value was 2.87 (ng/dL)/(mU/L).

Q: And the “ARR, median” value ([1]; 4 mg once daily, n=10, Day 42)?
A: The value was 2.07 (ng/dL)/(mU/L).

Q: What about the “ARR, mean” value ([1]; 4 mg once daily, n=10, Day 56) of the same substance?
A: The value was 3.70 (ng/dL)/(mU/L).

Q: What about the “ARR, median” value ([1]; 4 mg once daily, n=10, Day 56) of the same substance?
A: Its value is 2.52 (ng/dL)/(mU/L).

Q: What about the “ARR, mean” value [1, 4] of the same substance?
A: The value was 12.34 (ng/dL)/(mU/L).

Q: What about the “ARR, median” value [1, 4] of the same substance?
A: Its value is 11.47 (ng/dL)/(mU/L).

Q: What about the “change in ARR … mean” value ([1]; 8 mg once daily, n=12) of the same substance?
A: The value was −10.61 (ng/dL)/(mU/L).

Q: And the “change in ARR … median” value ([1]; 8 mg once daily, n=12)?
A: Its value is −6.99 (ng/dL)/(mU/L).

Q: What about the “ARR, mean” value [1, 5] of the same substance?
A: The value was 11.58 (ng/dL)/(mU/L).

Q: What about the “ARR, median” value [1, 5] of the same substance?
A: The value was 7.18 (ng/dL)/(mU/L).

Q: And the “ARR, mean” value ([1]; 8 mg once daily, n=12, Day 14)?
A: Its value is 0.8 (ng/dL)/(mU/L).

Q: And the “ARR, median” value ([1]; 8 mg once daily, n=12, Day 14)?
A: The value was 0.31 (ng/dL)/(mU/L).

Q: And the “ARR, mean” value ([1]; 8 mg once daily, n=12, Day 28)?
A: Its value is 1.26 (ng/dL)/(mU/L).

Q: And the “ARR, median” value ([1]; 8 mg once daily, n=12, Day 28)?
A: The value was 0.4 (ng/dL)/(mU/L).

Q: What about the “ARR, mean” value ([1]; 8 mg once daily, n=12, Day 42) of the same substance?
A: The value was 0.74 (ng/dL)/(mU/L).

Q: And the “ARR, median” value ([1]; 8 mg once daily, n=12, Day 42)?
A: The value was 0.29 (ng/dL)/(mU/L).

Q: And the “ARR, mean” value ([1]; 8 mg once daily, n=12, Day 56)?
A: The value was 0.96 (ng/dL)/(mU/L).

Q: And the “ARR, median” value ([1]; 8 mg once daily, n=12, Day 56)?
A: Its value is 0.27 (ng/dL)/(mU/L).

Q: And the “ARR, mean” value [1, 6]?
A: The value was 4.19 (ng/dL)/(mU/L).

Q: What about the “ARR, median” value [1, 6] of the same substance?
A: The value was 2.46 (ng/dL)/(mU/L).

Q: And the “change in ARR … mean” value ([1]; 12 mg once daily, n=13)?
A: The value was −15.61 (ng/dL)/(mU/L).

Q: And the “change in ARR … median” value ([1]; 12 mg once daily, n=13)?
A: Its value is −13.97 (ng/dL)/(mU/L).

Q: And the “ARR, mean” value [1, 7]?
A: The value was 17.75 (ng/dL)/(mU/L).

Q: What about the “ARR, median” value [1, 7] of the same substance?
A: The value was 17.8 (ng/dL)/(mU/L).

Q: And the “ARR, mean” value [1, 8]?
A: Its value is 9.3 (ng/dL)/(mU/L).

Q: And the “ARR, median” value [1, 8]?
A: The value was 13.72 (ng/dL)/(mU/L).

Q: What about the “ARR upon drug withdrawal” value ([1]; Day 70, after 14-day placebo withdrawal) of the same substance?
A: The value was “ARR values returned towards baseline values”.

Q: What about the “change in ARR … mean” value ([1]; all doses combined, n=35) of the same substance?
A: The value was −15.40 (ng/dL)/(mU/L).

Q: What about the “change in ARR … median” value ([1]; all doses combined, n=35) of the same substance?
A: Its value is −11.76 (ng/dL)/(mU/L).

Q: And the “LSM change in lognormal values of ARR from baseline” value ([1]; all patients, Day 1 to Day 56, FIG. 2A, p<0.0001)?
A: The value was −2.54 (95% CI −2.9 to −2.2).

Q: What about the “effect on ARR from baseline to day 56” value ([1]; all three doses (4 mg, 8 mg, 12 mg)) of the same substance?
A: Its value is “significant reductions (p<0.0001) in ARR from baseline to day 56”.

Q: What about the “effect on ARR over time” value ([1]; all three doses, baseline to day 14, 28, 42 and 56) of the same substance?
A: The value was “rapid and significant (p<0.0001) reductions in ARR; also recorded: rapid and significant reductions (p<0.0001) in ARR”.

Q: And the “plasma potassium, mean” value [2, 3]?
A: Its value is 3.36 nmol/L.

Q: What about the “plasma potassium, median” value [2, 3] of the same substance?
A: The value was 3.35 nmol/L.

Q: What about the “plasma potassium, mean” value ([2]; 4 mg once daily, n=10, Day 14) of the same substance?
A: The value was 4.27 nmol/L.

Q: And the “plasma potassium, median” value ([2]; 4 mg once daily, n=10, Day 14)?
A: Its value is 4.35 nmol/L.

Q: And the “plasma potassium, mean” value ([2]; 4 mg once daily, n=10, Day 28)?
A: The value was 3.85 nmol/L.

Q: And the “plasma potassium, median” value ([2]; 4 mg once daily, n=10, Day 28)?
A: The value was 3.85 nmol/L.

Q: And the “plasma potassium, mean” value ([2]; 4 mg once daily, n=10, Day 42)?
A: Its value is 4.07 nmol/L.

Q: What about the “plasma potassium, median” value ([2]; 4 mg once daily, n=10, Day 42) of the same substance?
A: Its value is 4.15 nmol/L.

Q: And the “plasma potassium, mean” value ([2]; 4 mg once daily, n=10, Day 56)?
A: The value was 4.10 nmol/L.

Q: And the “plasma potassium, median” value ([2]; 4 mg once daily, n=10, Day 56)?
A: Its value is 4.20 nmol/L.

Q: And the “plasma potassium, mean” value [2, 4]?
A: Its value is 3.58 nmol/L.

Q: What about the “plasma potassium, median” value [2, 4] of the same substance?
A: Its value is 3.60 nmol/L.

Q: And the “plasma potassium, mean” value [2, 9]?
A: Its value is 3.55 nmol/L.

Q: And the “plasma potassium, median” value [2, 9]?
A: The value was 3.50 nmol/L.

Q: And the “plasma potassium, mean” value ([2]; 8 mg once daily, n=11, Day 14)?
A: Its value is 4.32 nmol/L.

Q: And the “plasma potassium, median” value ([2]; 8 mg once daily, n=11, Day 14)?
A: Its value is 4.30 nmol/L.

Q: What about the “plasma potassium, mean” value ([2]; 8 mg once daily, n=11, Day 28) of the same substance?
A: Its value is 4.04 nmol/L.

Q: What about the “plasma potassium, median” value ([2]; 8 mg once daily, n=11, Day 28) of the same substance?
A: The value was 4.00 nmol/L.

Q: And the “plasma potassium, mean” value ([2]; 8 mg once daily, n=11, Day 42)?
A: Its value is 3.99 nmol/L.

Q: And the “plasma potassium, median” value ([2]; 8 mg once daily, n=11, Day 42)?
A: Its value is 3.90 nmol/L.
